Test systems include DU-145 prostate; HCC-2998 colon; HCT-116 colon; HOP-92 NSCLC; MCF7 breast; NCI-H23 lung; OVCAR-8 ovarian; SK-MEL-28 melanoma; LXFL 529 NSCLC; M19-MEL melanoma; SNB-78 CNS; XF 498 CNS; KM20L2 colon.
What all share (experiment): NCI tumour cell line growth inhibition, 48 h

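Where inhibition never reached the appropriate level, the endpoint shown equals the highest concentration tested. Otherwise, values were interpolated linearly from a five-concentration, 48-hour dose response in 96-well plates. The concentration for 50% growth inhibition is given as GI50. TGI marks complete inhibition of growth.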 Bounds are passed on as bounds.

Regarding `O=C1CSC(=S)N1`, the TGI with DU-145 prostate, in the assay with HCC-2998 colon, in the assay with HCT-116 colon, in the assay with HOP-92 NSCLC, with MCF7 breast and with NCI-H23 lung was above 100 µM throughout. Besides, the TGI with OVCAR-8 ovarian and in the assay with SK-MEL-28 melanoma was above 100 µM throughout.
With `Cc1ccc2c(c1)C(=O)N(N(C)C)CC(=O)N2`, the TGI in the assay on HCC-2998 colon, with HCT-116 colon, in the assay on HOP-92 NSCLC, in the assay with LXFL 529 NSCLC, in the assay with M19-MEL melanoma and with NCI-H23 lung was above 100 µM each time. In addition, the TGI with OVCAR-8 ovarian, in the assay on SK-MEL-28 melanoma, in the assay on SNB-78 CNS and with XF 498 CNS was above 100 µM throughout.
As for `Fc1ccc(C2CC(c3cccc(Nc4ccncc4)c3)=NN2c2ccc(Cl)cc2)cc1` (stereo not given), the GI50 with DU-145 prostate was 1.78 µM; with HCC-2998 colon, 1.55 µM; with HCT-116 colon it was 1.73 µM; in the assay on MCF7 breast it was 1.75 µM; in the assay with NCI-H23 lung, 1.84 µM; in the assay on SK-MEL-28 melanoma, 1.72 µM. The TGI in the assay on DU-145 prostate worked out at 3.21 µM; with HCC-2998 colon it was 2.96 µM; with HCT-116 colon, 3.39 µM; with MCF7 breast, 3.5 µM; with NCI-H23 lung, 3.62 µM; with SK-MEL-28 melanoma, 3.24 µM.
For `CC(=O)OCC1=C(C(=O)O)N2C(=O)C(NC(=O)CSc3ccncc3)C2SC1` (stereo not given), the TGI in the assay on DU-145 prostate, in the assay with HCC-2998 colon, with HCT-116 colon, with HOP-92 NSCLC, in the assay on MCF7 breast and in the assay on NCI-H23 lung was above 100 µM each time. In addition, the TGI with OVCAR-8 ovarian and in the assay with SK-MEL-28 melanoma was above 100 µM throughout.
On to `CC1CCC2(O)C3(C)CC4(O)OC2(C1O)C1(O)C3(O)C(OC(=O)c2ccc[nH]2)C(O)(C(C)C)C41C` (stereo not given), for which the TGI in the assay on DU-145 prostate, in the assay on HCC-2998 colon, with HCT-116 colon, with HOP-92 NSCLC, with MCF7 breast and in the assay with NCI-H23 lung was above 100 µM in each case. The TGI with OVCAR-8 ovarian and in the assay with SK-MEL-28 melanoma was above 100 µM each time.
As for `O=C1Nc2ccccc2C1=Nc1cccc2ncccc12`, the TGI in the assay on DU-145 prostate, in the assay on HCT-116 colon, in the assay on HOP-92 NSCLC, in the assay with MCF7 breast, in the assay on NCI-H23 lung and in the assay on OVCAR-8 ovarian was above 100 µM throughout. For the same compound, the TGI in the assay with SK-MEL-28 melanoma was above 100 µM.
On to `CCOC(=O)NC(Nc1ncccn1)(C(=O)OCC)C(F)(F)F` (stereo not given), for which the TGI in the assay with DU-145 prostate, with HCC-2998 colon, in the assay on HCT-116 colon, in the assay on HOP-92 NSCLC, with MCF7 breast and in the assay on NCI-H23 lung was above 100 µM in each case. In addition, the TGI in the assay with OVCAR-8 ovarian and in the assay with SK-MEL-28 melanoma was above 100 µM throughout.
Turning to `CC(C)(C)[Si](C)(C)OCC1OC(n2cnc3c(N)ncnc32)CC1O` (stereo not given), the TGI in the assay with DU-145 prostate, with HCT-116 colon, in the assay with MCF7 breast, with NCI-H23 lung, with OVCAR-8 ovarian and with SK-MEL-28 melanoma was above 100 µM throughout.
Regarding `c1coc(CNc2ncnc3[nH]ncc23)c1`, the TGI in the assay on HCC-2998 colon, in the assay on HCT-116 colon, in the assay with HOP-92 NSCLC, with KM20L2 colon, in the assay with LXFL 529 NSCLC and in the assay on M19-MEL melanoma was above 100 µM in each case. Further, the TGI with NCI-H23 lung, in the assay on OVCAR-8 ovarian, with SK-MEL-28 melanoma, with SNB-78 CNS and in the assay on XF 498 CNS was above 100 µM throughout.
As for `N#CN=[N+]([O-])c1ccc(C(=O)O)cc1`, the TGI is above 100 µM in the assay on HCC-2998 colon; 40.4 µM in the assay on HOP-92 NSCLC; 38.8 µM in the assay on MCF7 breast; 33.7 µM with NCI-H23 lung; 37.1 µM with OVCAR-8 ovarian; 33.4 µM with SK-MEL-28 melanoma.
Consider `Cc1cc(C)n(-c2nsc3ccccc23)n1`, for which the TGI in the assay on HCC-2998 colon, in the assay with HCT-116 colon, in the assay on HOP-92 NSCLC, with KM20L2 colon, with LXFL 529 NSCLC and in the assay on M19-MEL melanoma was above 100 µM throughout. Moreover, the TGI in the assay on NCI-H23 lung, in the assay with OVCAR-8 ovarian, in the assay with SK-MEL-28 melanoma and in the assay with SNB-78 CNS was above 100 µM throughout.
Consider `C/C(N=NS(=O)(=O)c1ccccc1)=C1\C=CC=CN1O`, for which the TGI in the assay with HCC-2998 colon, with HCT-116 colon, in the assay with HOP-92 NSCLC, in the assay with KM20L2 colon, with LXFL 529 NSCLC and with M19-MEL melanoma was above 100 µM in each case. Also, the TGI with NCI-H23 lung, with OVCAR-8 ovarian, in the assay on SK-MEL-28 melanoma, in the assay with SNB-78 CNS and with XF 498 CNS was above 100 µM in each case.
As for `CSc1nc(NC2OCC(O)C(O)C2O)c(N)c(=O)[nH]1` (stereo not given), the TGI with HCC-2998 colon, in the assay with HCT-116 colon, in the assay on HOP-92 NSCLC, with KM20L2 colon, in the assay on M19-MEL melanoma and with MCF7 breast was above 100 µM in each case. The TGI in the assay on NCI-H23 lung, with OVCAR-8 ovarian, with SK-MEL-28 melanoma and with SNB-78 CNS was above 100 µM throughout.
Turning to `NCCCOc1ccc([N+](=O)[O-])cc1Cl`, the TGI in the assay with HCC-2998 colon, in the assay on HCT-116 colon, with HOP-92 NSCLC, in the assay with KM20L2 colon, in the assay on LXFL 529 NSCLC and in the assay with M19-MEL melanoma was above 100 µM in each case. Besides, the TGI in the assay on NCI-H23 lung, in the assay on OVCAR-8 ovarian, with SK-MEL-28 melanoma and in the assay on XF 498 CNS was above 100 µM in each case.
As for `O=C1NC2=C(CCCC/C2=N\O)C12CCCCC2`, the TGI with HCC-2998 colon, with HCT-116 colon, with KM20L2 colon, with LXFL 529 NSCLC, in the assay on M19-MEL melanoma and with NCI-H23 lung was above 100 µM in each case. Also, the TGI in the assay on SK-MEL-28 melanoma, in the assay with SNB-78 CNS and in the assay on XF 498 CNS was above 100 µM each time.
For the compound `Brc1ccc(C2CC(c3cccc4ccccc34)=Nc3ccccc3S2)cc1` (stereo not given), the TGI in the assay with HCC-2998 colon, in the assay on HCT-116 colon, in the assay with HOP-92 NSCLC, with KM20L2 colon, with LXFL 529 NSCLC and with M19-MEL melanoma was above 100 µM throughout. Further, the TGI with NCI-H23 lung, with OVCAR-8 ovarian, in the assay with SK-MEL-28 melanoma, in the assay on SNB-78 CNS and with XF 498 CNS was above 100 µM in each case.
Take `OCCOCCN1CCN(CCCN2c3ccccc3Sc3ccc(C(F)(F)F)cc32)CC1`: the TGI in the assay with DU-145 prostate was 27.6 µM; with HCC-2998 colon, 13 µM; in the assay on HCT-116 colon it was 20.3 µM; with HOP-92 NSCLC, 27.8 µM; with MCF7 breast, 28.3 µM; in the assay on NCI-H23 lung, 31 µM. In addition, the figures for the TGI in the assay with OVCAR-8 ovarian and in the assay with SK-MEL-28 melanoma were 30 µM and 9.55 µM, respectively.
Take `CCN(CC)CCNc1ccc2nnn3c4ccc(C)cc4c(=O)c1c23`: the TGI is 15 µM with HCT-116 colon; 20.7 µM with HOP-92 NSCLC; 19.3 µM with KM20L2 colon; 24.5 µM with LXFL 529 NSCLC; 27.8 µM in the assay with M19-MEL melanoma; 24.7 µM in the assay with NCI-H23 lung. Further, the TGI in the assay on OVCAR-8 ovarian amounted to 20.9 µM; in the assay with SK-MEL-28 melanoma, 28.9 µM; with SNB-78 CNS, 26.1 µM.
As for `COc1ccc2nc3cc(Cl)ccc3c(NCCNC(=O)Cn3c(=O)n(C)c(=O)c4c3nc3c(c(=O)n(C)c(=O)n3C)[n+]4[O-])c2c1`, the TGI in the assay on DU-145 prostate is above 100 µM; with HCC-2998 colon, above 100 µM; in the assay with HCT-116 colon it was above 100 µM; in the assay on HOP-92 NSCLC, above 74.7 µM; in the assay with MCF7 breast it was above 100 µM; in the assay with NCI-H23 lung, 56 µM. Further, the values for the TGI in the assay on OVCAR-8 ovarian and with SK-MEL-28 melanoma were 57 µM and above 31.6 µM, respectively.
